Consider two molecules from patent US9222137B2, “Method for monitoring minimal residual hairy cell leukemia” (Trovagene, Inc., priority 2011, dated 2015).

“Also recorded” adds a separate entry of the source.

In one experiment the test system is hairy cell leukemia. The experiment in a line: Case report: index HCL patient treated with pentostatin. The class given is in vivo, human.
Experiment [1] deals with phosphorylated MEK and ERK in purified primary HCL cells (BRAF V600E). The experiment in a line: Western blot analysis of MEK and ERK phosphorylation in purified HCL cells incubated in vitro with BRAF inhibitor. The class given is cell-based, human. The settings on record: primary leukemic HCL cells; 250 nM, 500 nM or 1000 nM (≦1 μM); 2, 6 and 24 h incubation; vs vehicle (DMSO). (A western blot detects proteins with antibodies after separation by electrophoresis.)
Experimental: Fresh leukemic cells purified from the peripheral blood of 5 patients with HCL were seeded in triplicate (2 to 3×10^5 cells/well, depending on the patient) in 96-well flat-bottom plates, and left recovering by overnight incubation at 37° C. and 5% CO2 in cell culture medium (RPMI1640 with 10% fetal bovine serum, glutamine and antibiotics). […] DMSO (the drug vehicle) was added in parallel wells as control. Cells were then harvested at different time points (2 h, 6 h and 24 h), washed 3 times in PBS, lysed in Laemmli sample buffer and boiled at 95° C. for 5 minutes. […] Protein lysates (6 to 7.5×10^4 fresh cell equivalent, depending on the patient; 2×10^5 frozen cell equivalent) were separated by SDS-polyacrylamide gel electrophoresis (SDS-PAGE) on pre-cast electrophoresis gels (12% Resolving gel cat. 456-1043 or Any kD Resolving Gel cat. 456-9036, Biorad), transferred to a 0.45 um pore size nitrocellulose transfer membrane (Whatman GmbH, Dassel, Germany), and probed with specific primary antibodies directly or after stripping (with Restore Western Blot Stripping Buffer, Pierce/Thermo Scientific cat. 21059). The anti-phospho-ERK1/2 (clone D13.14.4E; 1:2000 dilution), anti-phospho-MEK1/2 (clone 166F8; 1:1000 dilution), anti-ERK1/2 (clone 137F5; 1:1000 dilution) rabbit monoclonal antibodies and the anti-MEK1/2 (clone L38C12; 1:1000 dilution) mouse monoclonal antibody were all from Cell Signaling Technology. Upon incubation with horseradish peroxidase-conjugated secondary antibodies (GE Healthcare Lifesciences, Uppsala, Sweden), polypeptides were visualized using an enhanced chemiluminescence (ECL) western blot detection kit according to the manufacturer's instruction (GE Healthcare Lifesciences). Protein lysates (3×10^4 to 2×10^5 cell equivalent, depending on the experiment) from either serum-starved (45 min at 37° C. and 5% CO2 in RPMI1640) or unstarved human leukemic T-cell line Jurkat cells were used as negative and positive control, respectively, for ERK1/2 and MEK1/2 phosphorylation.
Membranes were probed with antibodies against phospho-ERK, phosphoMEK, total ERK and total MEK, as indicated on the far right. Protein lysates from either serum-starved or unstarved human leukemic Jurkat T cell line cells were used as negative (−) and positive (+) control, respectively, for ERK and MEK phosphorylation.

Text for hairy cell leukemia: Splenomegaly was present. […] At immunohistochemistry, leukemic cells were positive for CD20, DBA44, CD68 and Annexin-A1; expression of CD20, CD11c, CD25 and CD103 was documented by flow cytometry.

For the molecule `OC[C@H]1O[C@@H](n2cnc3c2NC=NC[C@H]3O)C[C@@H]1O` [pentostatin], the “clinical outcome after therapy” value in the experiment on hairy cell leukemia is on record as “complete hematological remission”.
As for `CCCS(=O)(=O)Nc1ccc(F)c(C(=O)c2c[nH]c3ncc(Cl)cc23)c1F` [PLX-4720], in experiment [1], the “phosphorylation of ERK (phospho-ERK, Western blot)” value was “dose-dependent dephosphorylation; also recorded: marked decrease” and the “phosphorylation of MEK (phospho-MEK, Western blot)” value is recorded as “dose-dependent dephosphorylation; also recorded: marked decrease”.
